Patent US10093630B2, “Pyrazole compounds and methods of making and using same” (ABIDE THERAPEUTICS, INC., priority 2014, dated 2018)

Assays:
Test in all cases: In vitro competitive activity-based protein profiling (gel-based, FP-Rh or HT-01 probe)
Assay type in all cases: biochemical
MAGL = target: T1, MAGL (Mus musculus, UniProt O35678); settings: for inhibition at 10 µM: 10 μM inhibitor; for inhibition at 1 µM: 1 μM inhibitor; for IC50: mouse brain membrane fraction or cell lysates, 30 min preincubation at 37° C., read-out: Mouse (IC50 value, nM) MAGL
T1 construct: Proteomes (mouse brain membrane fraction or cell lysates); from tissue; host or cells: mouse brain membrane fraction (or cell lysates, not specified)
T1 sequence (O35678 1-303): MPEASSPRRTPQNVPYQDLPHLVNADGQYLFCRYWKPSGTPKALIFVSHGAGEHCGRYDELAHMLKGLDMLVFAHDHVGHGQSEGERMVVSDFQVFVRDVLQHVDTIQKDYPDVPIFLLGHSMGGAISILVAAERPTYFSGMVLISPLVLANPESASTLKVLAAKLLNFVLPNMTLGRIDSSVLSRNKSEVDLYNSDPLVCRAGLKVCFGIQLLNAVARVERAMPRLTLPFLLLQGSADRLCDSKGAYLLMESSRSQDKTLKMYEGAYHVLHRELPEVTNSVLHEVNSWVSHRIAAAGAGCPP
Procedure: (§1) In Vitro Competitive Activity-Based Protein Profiling.
(§2) Proteomes (mouse brain membrane fraction or cell lysates) (50 μL, 1.0 mg/mL total protein concentration) were preincubated with varying concentrations of inhibitors at 37° C. After 30 min, FP-Rh or HT-01 ([…], 50 μM in DMSO) was added and the mixture was incubated for another 30 min at 37° C. Reactions were quenched with SDS loading buffer (15 μL—4×) and run on SDS-PAGE. Following gel imaging, serine hydrolase activity was determined by measuring fluorescent intensity of gel bands corresponding to MAGL, ABHD6, FAAH, and PLA2G7 using ImageJ 1.43u software.

FAAH = target: T2, FAAH (Mus musculus, UniProt O08914); settings: for inhibition at 10 µM: 10 μM inhibitor, read-out: % Inhibition at 10 μM, B = FAAH; for inhibition at 1 µM: 1 μM inhibitor, read-out: % Inhibition at 1 μM, B = FAAH; for IC50: mouse brain membrane fraction or cell lysates, 30 min preincubation at 37° C., read-out: Mouse (IC50 value, nM) FAAH
T2 construct: Proteomes (mouse brain membrane fraction or cell lysates); from tissue; host or cells: mouse brain membrane fraction (or cell lysates, not specified)
T2 sequence (O08914 1-579): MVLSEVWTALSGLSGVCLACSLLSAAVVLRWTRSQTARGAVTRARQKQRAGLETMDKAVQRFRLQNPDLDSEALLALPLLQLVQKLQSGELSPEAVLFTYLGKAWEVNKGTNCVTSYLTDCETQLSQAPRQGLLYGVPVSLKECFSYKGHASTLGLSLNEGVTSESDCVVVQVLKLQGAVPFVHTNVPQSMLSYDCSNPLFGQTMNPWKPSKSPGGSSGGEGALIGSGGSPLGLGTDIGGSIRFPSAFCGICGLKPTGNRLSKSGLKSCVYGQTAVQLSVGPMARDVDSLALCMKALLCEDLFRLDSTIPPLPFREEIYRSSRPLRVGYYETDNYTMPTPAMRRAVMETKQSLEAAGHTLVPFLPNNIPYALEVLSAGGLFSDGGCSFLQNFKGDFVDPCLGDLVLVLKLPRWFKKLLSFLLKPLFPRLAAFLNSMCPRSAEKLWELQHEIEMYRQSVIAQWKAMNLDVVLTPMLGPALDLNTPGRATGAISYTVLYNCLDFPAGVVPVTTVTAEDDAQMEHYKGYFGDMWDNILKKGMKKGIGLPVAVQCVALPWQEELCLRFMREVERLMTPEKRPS
Procedure: as §1, §2

ABHD6 = target: T3, ABHD6 (Mus musculus, UniProt Q8R2Y0); settings: for inhibition at 10 µM: 10 μM inhibitor, read-out: % Inhibition at 10 μM, C = ABHD6; for inhibition at 1 µM: 1 μM inhibitor, read-out: % Inhibition at 1 μM, C = ABHD6; for IC50: mouse brain membrane fraction or cell lysates, 30 min preincubation at 37° C., read-out: Mouse (IC50 value, nM) ABHD6
T3 construct: Proteomes (mouse brain membrane fraction or cell lysates); from tissue; host or cells: mouse brain membrane fraction (or cell lysates, not specified)
T3 sequence (Q8R2Y0 1-336): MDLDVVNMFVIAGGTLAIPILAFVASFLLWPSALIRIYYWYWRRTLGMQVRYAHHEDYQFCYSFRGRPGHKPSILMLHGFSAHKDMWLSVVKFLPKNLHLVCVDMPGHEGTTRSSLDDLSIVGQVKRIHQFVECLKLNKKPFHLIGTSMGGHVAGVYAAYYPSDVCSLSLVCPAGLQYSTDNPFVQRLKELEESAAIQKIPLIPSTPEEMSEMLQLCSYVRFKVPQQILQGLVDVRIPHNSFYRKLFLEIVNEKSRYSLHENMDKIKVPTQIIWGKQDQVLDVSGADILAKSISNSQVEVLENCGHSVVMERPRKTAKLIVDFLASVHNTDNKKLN
Procedure: as §1, §2

| inhibition at 10 µM (MAGL) | inhibition at 10 µM (FAAH) | inhibition at 10 µM (ABHD6) | inhibition at 1 µM (MAGL) | IC50 (MAGL) | inhibition at 1 µM (FAAH) | IC50 (FAAH) | inhibition at 1 µM (ABHD6) | IC50 (ABHD6) | SMILES |
| --- | --- | --- | --- | --- | --- | --- | --- | --- | --- |
| 25 to 75% | > 75% | < 25% | – | – | – | – | – | – | O=C(N1CCCC1)n1cc(Cl)cn1 [Example 98, (4-Chloro-1H-pyrazol-1-yl)(pyrrolidin-1-yl)methanone] |
| – | – | – | > 75% | < 100 nM | < 25% | > 1000 nM | > 75% | < 100 nM | O=C(N1CCN(Cc2ccc(Cl)cc2N2CCC3(CCOCC3)C2)CC1)n1cc(Cl)cn1 [Example 102, (4-Chloro-1H-pyrazol-1-yl)(4-(4-chloro-2-(8-oxa-2-azaspiro[4.5]decan-2-yl)benzyl)piperazin-1-yl)methanone] |
| < 25% | < 25% | < 25% | – | – | – | – | – | – | Cc1cnn(C(=O)NCc2ccc3ccccc3c2)c1 [Example 44, 4-Methyl-N-(naphthalen-2-ylmethyl)-1H-pyrazole-1-carboxamide] |
| > 75% | 25 to 75% | > 75% | > 75% | 100 to 1000 nM | < 25% | > 1000 nM | > 75% | 100 to 1000 nM | O=C(c1cnn(C(=O)N2CCN(C(c3ccc(Cl)cc3)c3ccc(Cl)cc3)CC2)c1)N1CCCCC1 [Example 66, (4-(Bis(4-chlorophenyl)methyl)piperazin-1-yl)(4-(piperidine-1-carbonyl)-1H-pyrazol-1-yl)methanone] |
| – | – | – | > 75% | < 100 nM | < 25% | > 1000 nM | > 75% | 100 to 1000 nM | O=C(N1CCN(Cc2ccc(C(F)(F)F)cc2N2CCCC2)CC1)n1cc(Cl)cn1 [Example 125, (4-Chloro-1H-pyrazol-1-yl)(4-(2-(pyrrolidin-1-yl)-4-(trifluoromethyl)benzyl)piperazin-1-yl)methanone] |
| 25 to 75% | > 75% | > 75% | – | – | – | – | – | – | O=C(N1CCN(Cc2c(N3CCCC3)cccc2C(F)(F)F)CC1)n1cc(-c2ccccc2)cn1 [Example 109, (4-Phenyl-1H-pyrazol-1-yl)(4-(2-(pyrrolidin-1-yl)-6-(trifluoromethyl)benzyl)piperazin-1-yl)methanone] |
| – | – | – | – | < 100 nM | – | 100 to 1000 nM | – | > 1000 nM | Cc1cc(-c2ccccc2)ccc1CN1CCN(C(=O)n2cccn2)CC1 [Example 94, (4-((3-Methyl-[1,1′-biphenyl]-4-yl)methyl)piperazin-1-yl)(1H-pyrazol-1-yl)methanone] |
| < 25% | > 75% | < 25% | – | – | – | – | – | – | O=C(N1CCOCC1)n1cc(Cl)cn1 [Example 97, (4-Chloro-1H-pyrazol-1-yl)(morpholino)methanone] |
| < 25% | < 25% | < 25% | – | – | – | – | – | – | Cc1cnn(C(=O)N(C)CCN(C)S(C)(=O)=O)c1 [Example 196, N,4-Dimethyl-N-(2-(N-methylmethylsulfonamido)ethyl)-1H-pyrazole-1-carboxamide] |
| – | – | – | > 75% | < 100 nM | > 75% | 100 to 1000 nM | > 75% | 100 to 1000 nM | O=C(N1CCN(Cc2ccc(C(F)(F)F)cc2N2CCCC2)CC1)n1cc(F)cn1 [Example 126, (4-Fluoro-1H-pyrazol-1-yl)(4-(2-(pyrrolidin-1-yl)-4-(trifluoromethyl)benzyl)piperazin-1-yl)methanone] |
| > 75% | < 25% | > 75% | > 75% | < 100 nM | < 25% | > 1000 nM | < 25% | > 1000 nM | Cc1cnn(C(=O)N2CCN(C(c3ccc(Cl)cc3)c3ccc(Cl)cc3)CC2)c1 [Example 117, (4-(Bis(4-chlorophenyl)methyl)piperazin-1-yl)(4-methyl-1H-pyrazol-1-yl)methanone] |
| – | – | – | – | 100 to 1000 nM | – | > 1000 nM | – | 100 to 1000 nM | O=C(c1cnn(C(=O)N2CCN(C(c3ccc(Cl)cc3)c3ccc(Cl)cc3)CC2)c1)N1CCCC1 [Example 48, (4-(Bis(4-chlorophenyl)methyl)piperazin-1-yl)(4-(pyrrolidine-1-carbonyl)-1H-pyrazol-1-yl)methanone] |
| < 25% | < 25% | > 75% | – | – | – | – | – | – | O=C(N1CCCC1)n1cc(-c2ccc(-c3ccccc3Cl)cc2)cn1 [Example 108, (4-(2′-Chloro-[1,1′-biphenyl]-4-yl)-1H-pyrazol-1-yl)(pyrrolidin-1-yl)methanone] |
| > 75% | > 75% | > 75% | > 75% | 100 to 1000 nM | < 25% | > 1000 nM | > 75% | 100 to 1000 nM | O=C(c1cnn(C(=O)N2CCN(C(c3ccc(Cl)cc3)c3ccc(Cl)cc3)CC2)c1)N1CCC1 [Example 68, Azetidin-1-yl(1-(4-(bis(4-chlorophenyl)methyl)piperazine-1-carbonyl)-1H-pyrazol-4-yl)methanone] |
| – | – | – | – | < 100 nM | – | 100 to 1000 nM | – | < 100 nM | O=C(N1CCN(Cc2ccc(Cl)cc2N2CCCC2)CC1)n1cc(Cl)cn1 [Example 50, (4-Chloro-1H-pyrazol-1-yl)(4-(4-chloro-2-(pyrrolidin-1-yl)benzyl)piperazin-1-yl)methanone] |
| > 75% | 25 to 75% | > 75% | – | 100 to 1000 nM | – | > 1000 nM | – | 100 to 1000 nM | Cc1cnn(C(=O)N2CCN(Cc3c(N4CCCC4)cccc3C(F)(F)F)CC2)c1 [Example 111, (4-Methyl-1H-pyrazol-1-yl)(4-(2-(pyrrolidin-1-yl)-6-(trifluoromethyl)benzyl)piperazin-1-yl)methanone] |
| – | – | – | – | < 100 nM | – | 100 to 1000 nM | – | < 100 nM | O=C(N1CCN(Cc2ccc(Cl)cc2N2CCOCC2)CC1)n1cc(Cl)cn1 [Example 47, (4-Chloro-1H-pyrazol-1-yl)(4-(4-chloro-2-morpholinobenzyl)piperazin-1-yl)methanone] |
| < 25% | < 25% | 25 to 75% | – | – | – | – | – | – | CC(=O)N1CCCN(C(=O)n2cc(Cl)cn2)CC1 [Example 188, 1-(4-(4-Chloro-1H-pyrazole-1-carbonyl)-1,4-diazepan-1-yl)ethanone] |
| > 75% | > 75% | > 75% | > 75% | < 100 nM | < 25% | > 1000 nM | < 25% | > 1000 nM | O=C(N1CCN(C(c2ccc(Cl)cc2)c2ccc(Cl)cc2)CC1)n1cc(F)cn1 [Example 121, (4-(Bis(4-chlorophenyl)methyl)piperazin-1-yl)(4-fluoro-1H-pyrazol-1-yl)methanone] |
| – | – | – | > 75% | – | > 75% | – | > 75% | – | CC(C)n1cc(CN2CCN(C(=O)n3cc(Cl)cn3)CC2)c(-c2ccccc2)n1 [Example 101, (4-Chloro-1H-pyrazol-1-yl)(4-((1-isopropyl-3-phenyl-1H-pyrazol-4-yl)methyl)piperazin-1-yl)methanone] |
